Measurements reported in ChEMBL document CHEMBL3352474, “Design, synthesis and biological evaluation of FLT3 covalent inhibitors with a resorcylic acid core” (Bioorg Med Chem, 2014).

Assays:
[1] = molecular target: T1, Receptor-type tyrosine-protein kinase FLT3 (Homo sapiens, UniProt P36888); experiment: Inhibition of recombinant FLT3 (unknown origin) by TR-FRET assay
T1 sequence (P36888 whole entry): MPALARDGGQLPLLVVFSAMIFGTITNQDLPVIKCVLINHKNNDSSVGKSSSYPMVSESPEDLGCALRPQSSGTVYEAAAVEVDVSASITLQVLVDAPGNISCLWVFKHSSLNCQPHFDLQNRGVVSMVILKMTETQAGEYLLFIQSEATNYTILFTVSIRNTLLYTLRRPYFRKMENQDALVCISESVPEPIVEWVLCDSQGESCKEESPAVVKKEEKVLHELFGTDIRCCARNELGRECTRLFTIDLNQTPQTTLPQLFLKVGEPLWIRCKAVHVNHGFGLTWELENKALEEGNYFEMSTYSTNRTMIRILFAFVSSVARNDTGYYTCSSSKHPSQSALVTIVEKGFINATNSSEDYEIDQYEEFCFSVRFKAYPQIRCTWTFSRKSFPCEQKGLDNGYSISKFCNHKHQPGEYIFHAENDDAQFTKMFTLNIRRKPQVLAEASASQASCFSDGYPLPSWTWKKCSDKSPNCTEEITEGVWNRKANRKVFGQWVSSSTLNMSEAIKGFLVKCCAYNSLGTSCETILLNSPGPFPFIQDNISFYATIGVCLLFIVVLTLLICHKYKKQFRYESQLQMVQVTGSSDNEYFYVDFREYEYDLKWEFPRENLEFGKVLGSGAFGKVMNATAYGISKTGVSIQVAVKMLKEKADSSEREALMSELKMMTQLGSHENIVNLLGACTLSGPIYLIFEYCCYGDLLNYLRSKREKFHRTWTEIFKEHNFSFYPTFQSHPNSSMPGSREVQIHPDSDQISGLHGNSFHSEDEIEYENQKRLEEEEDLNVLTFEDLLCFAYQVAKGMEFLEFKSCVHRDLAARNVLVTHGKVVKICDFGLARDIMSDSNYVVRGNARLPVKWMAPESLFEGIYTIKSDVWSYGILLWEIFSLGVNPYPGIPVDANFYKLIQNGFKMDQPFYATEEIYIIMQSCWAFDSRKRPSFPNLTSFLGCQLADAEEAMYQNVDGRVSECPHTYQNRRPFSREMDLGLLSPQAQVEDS

[2] = Antiproliferative activity against human HEK293T cells assessed as growth inhibition at 5 uM after 72 hrs by luminescent cell viability assay; assay type: cell-based, HEK-293T; conditions: read-out: GI
[3] = molecular target: MAP kinase-interacting serine/threonine-protein kinase 1 (Homo sapiens) (UniProt Q9BUB5); experiment: Inhibition of MNK1 (unknown origin) at 10 uM
MAP kinase-interacting serine/threonine-protein kinase 1 (Homo sapiens), sequence (Q9BUB5 whole entry, looked up): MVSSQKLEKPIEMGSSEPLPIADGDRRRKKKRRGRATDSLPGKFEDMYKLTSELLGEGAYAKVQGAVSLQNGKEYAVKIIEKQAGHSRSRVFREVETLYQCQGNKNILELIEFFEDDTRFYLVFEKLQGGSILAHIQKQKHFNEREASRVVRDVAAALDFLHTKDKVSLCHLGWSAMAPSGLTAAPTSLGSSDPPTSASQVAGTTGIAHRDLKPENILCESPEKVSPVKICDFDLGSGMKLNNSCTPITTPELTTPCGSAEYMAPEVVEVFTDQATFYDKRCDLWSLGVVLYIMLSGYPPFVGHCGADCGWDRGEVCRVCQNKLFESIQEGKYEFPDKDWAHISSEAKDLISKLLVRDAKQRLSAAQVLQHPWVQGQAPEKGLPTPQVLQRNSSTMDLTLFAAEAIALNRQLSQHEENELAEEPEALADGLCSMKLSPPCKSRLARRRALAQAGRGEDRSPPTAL

[4] = molecular target: MAP kinase-interacting serine/threonine-protein kinase 2 (Homo sapiens) (UniProt Q9HBH9); experiment: Inhibition of MNK2 (unknown origin) at 10 uM
MAP kinase-interacting serine/threonine-protein kinase 2 (Homo sapiens), sequence (Q9HBH9 whole entry, looked up): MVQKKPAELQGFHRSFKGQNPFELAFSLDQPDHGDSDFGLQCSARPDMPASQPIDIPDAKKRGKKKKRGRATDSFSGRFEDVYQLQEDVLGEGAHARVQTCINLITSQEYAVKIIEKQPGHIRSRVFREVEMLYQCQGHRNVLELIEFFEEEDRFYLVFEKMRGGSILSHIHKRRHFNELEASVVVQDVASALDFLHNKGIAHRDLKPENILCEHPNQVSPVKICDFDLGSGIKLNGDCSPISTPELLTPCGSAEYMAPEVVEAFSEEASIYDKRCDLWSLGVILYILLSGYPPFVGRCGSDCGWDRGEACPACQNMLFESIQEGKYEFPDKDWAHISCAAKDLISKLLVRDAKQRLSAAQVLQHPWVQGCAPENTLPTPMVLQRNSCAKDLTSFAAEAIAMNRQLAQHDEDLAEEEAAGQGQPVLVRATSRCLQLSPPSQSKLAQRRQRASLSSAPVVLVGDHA

[5] = Antiproliferative activity against human THP1 cells after 72 hrs by luminescent cell viability assay; assay type: functional, cell-based; conditions: THP-1, 72 h
K562 = experiment: Antiproliferative activity against human K562 cells assessed as growth inhibition at 5 uM after 72 hrs by luminescent cell viability assay; assay type: functional; conditions: K562, 72 h, read-out: GI
[6] = Antiproliferative activity against human HL60 cells assessed as growth inhibition at 5 uM after 72 hrs by luminescent cell viability assay; assay type: functional; conditions: HL-60, 72 h, read-out: GI
MV4-11 [7] = experiment: Antiproliferative activity against human MV4-11 cells assessed as growth inhibition at 5 uM after 72 hrs by luminescent cell viability assay; assay type: functional; conditions: MV4-11, 72 h, read-out: GI
[8] = Antiproliferative activity against human THP1 cells assessed as growth inhibition at 5 uM after 72 hrs by luminescent cell viability assay; assay type: functional; conditions: THP-1, 72 h, read-out: GI
MV4-11 [9] = experiment: Antiproliferative activity against human MV4-11 cells after 72 hrs by luminescent cell viability assay; assay type: functional, cell-based; conditions: MV4-11, 72 h
[10] = molecular target: Receptor-type tyrosine-protein kinase FLT3 (Homo sapiens, UniProt P36888, ITD); experiment: Inhibition of recombinant FLT3 ITD mutant (unknown origin) by RBC kinase assay
[11] = molecular target: Receptor-type tyrosine-protein kinase FLT3 (Homo sapiens, UniProt P36888, D835Y); experiment: Inhibition of recombinant FLT3 D835Y mutant (unknown origin) by TR-FRET assay
[12] = molecular target: Receptor-type tyrosine-protein kinase FLT3 (Homo sapiens) (UniProt P36888)
Description: Binding affinity to FLT3 (unknown origin) assessed as dissociation half life

IC50 [1] [µM] | inhibition [3] [%] | inhibition [4] [%] | IC50 (MV4-11 [9]) [µM] | IC50 [10] [µM] | IC50 [11] [µM] | T1/2 [12] [min] | SMILES | inhibition at 72 h, 5 µM [2] [%] | IC50 [5] [µM] | inhibition of growth at 5 µM (K562) [%] | inhibition of growth at 5 µM [6] [%] | inhibition of growth at 5 µM (MV4-11 [7]) [%] | inhibition of growth at 5 µM [8] [%]
0.54 | 5.4 | 4.1 | 1.73 | 9.79 | 1.34 | – | COc1cc(O)c(C(=O)OC(C)C)c(/C=C/CN2C(=O)C=CC2=O)c1 | 8 | 7.32 | 95.7 | 65.7 | 99.8 | 41.8
– | – | – | – | – | – | 11.3 | CCN(CC)CCNC(=O)c1c(C)[nH]c(/C=C2\C(=O)Nc3ccc(F)cc32)c1C | – | – | – | – | – | –
0.43 | 6.2 | 2.4 | 1.57 | 13.2 | 3.03 | – | COc1cc(O)c(C(=O)OC(C)C)c(CCCN2C(=O)C=CC2=O)c1 | 13.4 | 6.74 | 98.9 | 67.9 | 99.8 | 98.8
9.61 | 8 | 6.5 | 3.74 | 0.5 | 2.81 | – | C=CC(=O)NC/C=C/c1cc(OCCCN2CCOCC2)cc(O)c1C(=O)OC(C)C | 26.5 | 20.7 | 23 | 8.1 | 73.9 | 9.1
